Source: ChEMBL document CHEMBL4665650, “Towards a TREK-1/2 (TWIK-Related K+ Channel 1 and 2) dual activator tool compound: Multi-dimensional optimization of BL-1249” (Bioorg Med Chem Lett, 2019)

Assays:
[1] = molecular target: T1, Potassium channel subfamily K member 10 (Homo sapiens, UniProt P57789); assay: Activation of human TREK2 by thallium flux mobilization assay
T1 sequence (P57789 whole entry): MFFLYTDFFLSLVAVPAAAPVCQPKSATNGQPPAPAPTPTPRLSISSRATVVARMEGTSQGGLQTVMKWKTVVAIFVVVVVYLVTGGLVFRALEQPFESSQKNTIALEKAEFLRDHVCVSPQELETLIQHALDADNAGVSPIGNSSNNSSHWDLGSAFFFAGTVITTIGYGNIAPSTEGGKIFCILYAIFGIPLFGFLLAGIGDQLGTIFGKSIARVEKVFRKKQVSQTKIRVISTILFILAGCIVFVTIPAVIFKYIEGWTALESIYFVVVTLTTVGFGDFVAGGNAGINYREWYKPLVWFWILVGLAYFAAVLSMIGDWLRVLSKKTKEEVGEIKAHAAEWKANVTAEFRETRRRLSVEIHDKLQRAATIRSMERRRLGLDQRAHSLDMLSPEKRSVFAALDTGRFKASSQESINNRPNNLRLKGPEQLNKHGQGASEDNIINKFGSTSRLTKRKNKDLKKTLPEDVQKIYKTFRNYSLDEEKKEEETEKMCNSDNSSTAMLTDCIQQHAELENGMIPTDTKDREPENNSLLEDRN

[2] = molecular target: T2, Potassium channel subfamily K member 2 (Homo sapiens, UniProt O95069); assay: Activation of human TREK1 by thallium flux mobilization assay
T2 sequence (O95069 whole entry): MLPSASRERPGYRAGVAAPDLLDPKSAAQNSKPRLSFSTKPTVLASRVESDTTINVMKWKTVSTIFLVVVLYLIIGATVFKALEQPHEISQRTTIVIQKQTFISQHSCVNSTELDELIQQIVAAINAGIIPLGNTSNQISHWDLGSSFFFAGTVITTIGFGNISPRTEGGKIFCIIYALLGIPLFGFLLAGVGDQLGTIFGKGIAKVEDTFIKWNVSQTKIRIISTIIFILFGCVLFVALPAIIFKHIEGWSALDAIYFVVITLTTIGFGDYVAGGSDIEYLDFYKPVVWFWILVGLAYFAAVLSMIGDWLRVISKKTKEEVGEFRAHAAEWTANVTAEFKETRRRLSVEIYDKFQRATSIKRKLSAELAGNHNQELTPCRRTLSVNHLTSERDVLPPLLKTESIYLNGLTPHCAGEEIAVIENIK

[3] = molecular target: T3, Potassium channel subfamily K member 10 (Homo sapiens) (UniProt P57789); assay: Activation of human TREK2 at 30 uM by thallium flux mobilization assay relative to control; details: filed as activator
T3 sequence (whole entry): T1 sequence (P57789 whole entry)

[4] = molecular target: T4, Potassium channel subfamily K member 2 (Homo sapiens) (UniProt O95069); assay: Activation of human TREK1 at 30 uM by thallium flux mobilization assay relative to control; details: filed as activator
T4 sequence (whole entry): T2 sequence (O95069 whole entry)

[5] = Fraction unbound in human plasma; assay type: ADME, cell-free
[6] = Fraction unbound in rat plasma; assay type: ADME, cell-free
[7] = Half life in rat at 0.05 mg/kg, iv administered as cassette dose; assay type: ADME, organism-based; details: in vivo
[8] = molecular target: Sodium-dependent noradrenaline transporter (Homo sapiens) (UniProt P23975); assay: Displacement of [125I]RTI-55 from full length recombinant human NET expressed in MDCK cells at 30 uM after 180 mins by radiometric scintillation analysis relative to control; assay type: cell-based
[9] = species on record: Rattus norvegicus; assay: Displacement of [3H]GABA from rat brain GABA receptor at 30 uM after 20 mins by radiometric scintillation analysis relative to control
[10] = species on record: Rattus norvegicus; assay: Displacement of [125I]-Triiodothyronine from thyroid hormone receptors in rat at 30 uM incubated for 1080 mins by radiometric scintillation analysis relative to control
[11] = molecular target: 5-hydroxytryptamine receptor 1A (Homo sapiens) (UniProt P08908); assay: Displacement of [3H]-8-OH-DPAT from full length recombinant human 5HT1A receptor expressed in CHO-K1 cells at 30 uM incubated for 60 mins by radiometric scintillation analysis relative to control; assay type: cell-based
[12] = species on record: Rattus norvegicus; assay: Displacement of [35S] dATPalphaS from Wistar rat brain P2Y receptor at 30 uM incubated for 180 mins by radiometric scintillation analysis relative to control; assay type: tissue-based
[13] = molecular target: Cysteinyl leukotriene receptor 1 (Homo sapiens) (UniProt Q9Y271); assay: Displacement of [3H]LTD4 from full length recombinant human CysLT1 Leukotriene receptor expressed in CHO-K1 cells at 30 uM incubated for 30 mins by radiometric scintillation analysis relative to control; assay type: cell-based
[14] = molecular target: Androgen receptor (Homo sapiens) (UniProt P10275); assay: Displacement of [3H]methyltrienolone from human LNCaP cells derived androgen receptor at 30 uM measured after 1200 mins by radiometric scintillation analysis relative to control; assay type: cell-based
[15] = molecular target: Adenosine receptor A2a (Homo sapiens) (UniProt P29274); assay: Displacement of [3H]CGS-21680 from full length recombinant human A2A receptor expressed in HEK293 cells at 30 uM measured after 90 mins by radiometric scintillation analysis relative to control; assay type: cell-based
[16] = molecular target: Adenosine receptor A1 (Homo sapiens) (UniProt P30542); assay: Displacement of [3H]DPCPX from recombinant full length human adenosine A1 receptor expressed in CHO-K1 cells at 30 uM incubated for 90 mins by radiometric scintillation analysis relative to control; assay type: cell-based
[17] = molecular target: Potassium/sodium hyperpolarization-activated cyclic nucleotide-gated channel 4 (Homo sapiens) (UniProt Q9Y3Q4); assay: Activation of HCN4 (unknown origin) at 30 uM by manual patch clamp method relative to control
[18] = molecular target: Neuronal acetylcholine receptor subunit alpha-7 (Homo sapiens) (UniProt P36544); assay: Inhibition of alpha7 nAChR (unknown origin) at 30 uM by manual patch clamp method relative to control
[19] = molecular target: Potassium voltage-gated channel subfamily KQT member 3 (Homo sapiens) (UniProt O43525); assay: Inhibition of Kv7.3 (unknown origin) at 30 uM by manual patch clamp method relative to control
[20] = molecular target: Kv7.1 (Homo sapiens, UniProt P51787); assay: Inhibition of Kv7.1 (unknown origin) at 30 uM by manual patch clamp method relative to control
[21] = molecular target: A-type potassium channel modulatory protein KCNIP2 (Homo sapiens) (UniProt Q9NS61); assay: Inhibition of KCHiP (unknown origin) at 30 uM by manual patch clamp method relative to control
[22] = molecular target: A-type voltage-gated potassium channel KCND3 (Homo sapiens, UniProt Q9UK17); assay: Activation of Kv4.3 (unknown origin) at 30 uM by manual patch clamp method relative to control
[23] = molecular target: Potassium voltage-gated channel subfamily A member 3 (Homo sapiens) (UniProt P22001); assay: Inhibition of Kv1.3 (unknown origin) at 30 uM by manual patch clamp method relative to control
[24] = molecular target: Intermediate conductance calcium-activated potassium channel protein 4 (Homo sapiens) (UniProt O15554); assay: Activation of Kca3.1 (unknown origin) at 30 uM by manual patch clamp method relative to control
[25] = molecular target: Inward rectifier potassium channel 2 (Homo sapiens, UniProt P63252); assay: Activation of Kir2.1 (unknown origin) at 30 uM by manual patch clamp method relative to control
[26] = AUC in rat at 3 mg/kg, po; assay type: ADME, organism-based; parameters: dose 3 mg/kg; details: in vivo
[27] = Elimination half life in rat at 3 mg/kg, po; assay type: ADME, organism-based; details: in vivo, read-out: beta t1/2 (converted)
[28] = Cmax in rat at 3 mg/kg, po; assay type: ADME, organism-based; parameters: route oral, dose 3 mg/kg; details: in vivo
[29] = Fraction unbound in mouse plasma; assay type: ADME, cell-free
[30] = molecular target: Sodium-dependent dopamine transporter (Homo sapiens) (UniProt Q01959); assay: Displacement of [125I]RTI-55 from full length recombinant human dopamine transporter expressed in CHO-S cells at 30 uM after 180 mins by radiometric scintillation analysis relative to control; assay type: cell-based
Chain of Sodium-dependent dopamine transporter (Homo sapiens) (Q01959 whole entry): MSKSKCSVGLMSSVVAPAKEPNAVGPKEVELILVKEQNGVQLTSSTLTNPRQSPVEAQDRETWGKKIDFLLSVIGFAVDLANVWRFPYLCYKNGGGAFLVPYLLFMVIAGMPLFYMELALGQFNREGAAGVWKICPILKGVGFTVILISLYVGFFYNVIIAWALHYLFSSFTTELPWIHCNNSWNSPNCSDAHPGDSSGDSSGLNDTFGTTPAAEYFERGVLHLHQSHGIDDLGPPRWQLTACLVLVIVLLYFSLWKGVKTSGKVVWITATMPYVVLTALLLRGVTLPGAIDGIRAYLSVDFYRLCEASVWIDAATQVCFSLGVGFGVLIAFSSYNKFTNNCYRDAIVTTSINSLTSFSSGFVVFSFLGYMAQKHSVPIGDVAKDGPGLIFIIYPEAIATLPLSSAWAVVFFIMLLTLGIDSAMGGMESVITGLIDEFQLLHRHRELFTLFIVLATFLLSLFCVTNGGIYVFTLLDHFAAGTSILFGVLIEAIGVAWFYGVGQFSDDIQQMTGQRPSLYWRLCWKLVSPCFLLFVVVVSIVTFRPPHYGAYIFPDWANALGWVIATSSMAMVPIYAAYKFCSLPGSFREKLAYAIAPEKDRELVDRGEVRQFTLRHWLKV

Chain of Sodium-dependent noradrenaline transporter (Homo sapiens) (P23975 whole entry): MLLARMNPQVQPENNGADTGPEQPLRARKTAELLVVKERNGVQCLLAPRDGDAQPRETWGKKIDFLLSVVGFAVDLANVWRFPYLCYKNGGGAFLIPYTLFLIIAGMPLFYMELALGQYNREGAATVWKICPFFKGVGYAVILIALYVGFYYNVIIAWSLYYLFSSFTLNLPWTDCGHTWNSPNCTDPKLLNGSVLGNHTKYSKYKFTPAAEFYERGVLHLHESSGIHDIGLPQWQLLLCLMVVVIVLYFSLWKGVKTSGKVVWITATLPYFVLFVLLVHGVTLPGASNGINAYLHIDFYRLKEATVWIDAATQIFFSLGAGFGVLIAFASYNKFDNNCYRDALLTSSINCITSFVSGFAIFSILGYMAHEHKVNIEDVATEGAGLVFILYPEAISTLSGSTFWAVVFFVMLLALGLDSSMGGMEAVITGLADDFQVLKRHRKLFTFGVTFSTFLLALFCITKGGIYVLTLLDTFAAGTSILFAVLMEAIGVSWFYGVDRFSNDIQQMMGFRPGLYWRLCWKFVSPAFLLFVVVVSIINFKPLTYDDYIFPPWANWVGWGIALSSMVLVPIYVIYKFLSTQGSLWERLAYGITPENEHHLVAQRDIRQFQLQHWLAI
Chain of 5-hydroxytryptamine receptor 1A (Homo sapiens) (P08908 whole entry): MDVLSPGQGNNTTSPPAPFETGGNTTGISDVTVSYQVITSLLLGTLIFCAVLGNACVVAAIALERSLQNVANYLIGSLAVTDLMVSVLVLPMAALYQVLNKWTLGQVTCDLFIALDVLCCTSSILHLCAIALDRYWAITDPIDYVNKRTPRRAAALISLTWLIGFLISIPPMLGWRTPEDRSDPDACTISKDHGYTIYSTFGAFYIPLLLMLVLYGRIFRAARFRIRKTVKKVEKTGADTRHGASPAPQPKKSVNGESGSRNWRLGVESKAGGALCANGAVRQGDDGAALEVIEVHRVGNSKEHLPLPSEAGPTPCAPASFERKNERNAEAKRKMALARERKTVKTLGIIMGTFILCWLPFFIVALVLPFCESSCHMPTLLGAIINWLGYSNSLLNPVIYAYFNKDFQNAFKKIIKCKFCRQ
Chain of Neuronal acetylcholine receptor subunit alpha-7 (Homo sapiens) (P36544 whole entry): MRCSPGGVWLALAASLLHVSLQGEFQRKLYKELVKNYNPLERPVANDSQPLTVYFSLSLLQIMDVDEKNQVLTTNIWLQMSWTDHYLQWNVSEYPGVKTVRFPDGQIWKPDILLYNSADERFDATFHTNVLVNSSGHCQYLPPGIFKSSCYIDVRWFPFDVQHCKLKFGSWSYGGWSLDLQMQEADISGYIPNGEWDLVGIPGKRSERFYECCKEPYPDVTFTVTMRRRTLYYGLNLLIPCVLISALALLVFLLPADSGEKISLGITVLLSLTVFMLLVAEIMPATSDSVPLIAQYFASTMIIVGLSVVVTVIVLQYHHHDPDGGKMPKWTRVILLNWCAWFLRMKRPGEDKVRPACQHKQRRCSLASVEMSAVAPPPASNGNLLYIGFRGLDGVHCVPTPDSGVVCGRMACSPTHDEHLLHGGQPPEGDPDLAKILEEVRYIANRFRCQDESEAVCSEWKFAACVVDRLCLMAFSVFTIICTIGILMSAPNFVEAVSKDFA
Chain of Potassium voltage-gated channel subfamily KQT member 3 (Homo sapiens) (O43525 whole entry): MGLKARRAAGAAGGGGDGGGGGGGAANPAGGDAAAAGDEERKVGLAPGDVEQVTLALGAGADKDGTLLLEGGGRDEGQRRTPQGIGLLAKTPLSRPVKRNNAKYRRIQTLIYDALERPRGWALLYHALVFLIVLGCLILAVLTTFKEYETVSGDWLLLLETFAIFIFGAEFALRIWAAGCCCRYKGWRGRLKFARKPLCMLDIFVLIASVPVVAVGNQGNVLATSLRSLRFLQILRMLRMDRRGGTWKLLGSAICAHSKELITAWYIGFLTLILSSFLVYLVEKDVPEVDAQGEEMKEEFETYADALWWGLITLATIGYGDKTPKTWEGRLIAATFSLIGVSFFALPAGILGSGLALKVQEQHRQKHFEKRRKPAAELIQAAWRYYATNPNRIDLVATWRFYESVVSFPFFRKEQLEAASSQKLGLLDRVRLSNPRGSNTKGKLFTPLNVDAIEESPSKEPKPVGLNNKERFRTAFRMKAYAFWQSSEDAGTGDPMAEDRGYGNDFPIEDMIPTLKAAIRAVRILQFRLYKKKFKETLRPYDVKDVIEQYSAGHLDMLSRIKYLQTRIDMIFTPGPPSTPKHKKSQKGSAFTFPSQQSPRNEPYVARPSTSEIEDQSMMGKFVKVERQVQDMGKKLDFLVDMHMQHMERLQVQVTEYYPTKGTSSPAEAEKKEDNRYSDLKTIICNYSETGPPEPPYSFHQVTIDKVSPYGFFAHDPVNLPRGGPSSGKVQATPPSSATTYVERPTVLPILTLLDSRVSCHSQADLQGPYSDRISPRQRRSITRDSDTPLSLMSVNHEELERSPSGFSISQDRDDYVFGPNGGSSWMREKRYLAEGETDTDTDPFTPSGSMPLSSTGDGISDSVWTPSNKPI
Chain of Androgen receptor (Homo sapiens) (P10275 whole entry): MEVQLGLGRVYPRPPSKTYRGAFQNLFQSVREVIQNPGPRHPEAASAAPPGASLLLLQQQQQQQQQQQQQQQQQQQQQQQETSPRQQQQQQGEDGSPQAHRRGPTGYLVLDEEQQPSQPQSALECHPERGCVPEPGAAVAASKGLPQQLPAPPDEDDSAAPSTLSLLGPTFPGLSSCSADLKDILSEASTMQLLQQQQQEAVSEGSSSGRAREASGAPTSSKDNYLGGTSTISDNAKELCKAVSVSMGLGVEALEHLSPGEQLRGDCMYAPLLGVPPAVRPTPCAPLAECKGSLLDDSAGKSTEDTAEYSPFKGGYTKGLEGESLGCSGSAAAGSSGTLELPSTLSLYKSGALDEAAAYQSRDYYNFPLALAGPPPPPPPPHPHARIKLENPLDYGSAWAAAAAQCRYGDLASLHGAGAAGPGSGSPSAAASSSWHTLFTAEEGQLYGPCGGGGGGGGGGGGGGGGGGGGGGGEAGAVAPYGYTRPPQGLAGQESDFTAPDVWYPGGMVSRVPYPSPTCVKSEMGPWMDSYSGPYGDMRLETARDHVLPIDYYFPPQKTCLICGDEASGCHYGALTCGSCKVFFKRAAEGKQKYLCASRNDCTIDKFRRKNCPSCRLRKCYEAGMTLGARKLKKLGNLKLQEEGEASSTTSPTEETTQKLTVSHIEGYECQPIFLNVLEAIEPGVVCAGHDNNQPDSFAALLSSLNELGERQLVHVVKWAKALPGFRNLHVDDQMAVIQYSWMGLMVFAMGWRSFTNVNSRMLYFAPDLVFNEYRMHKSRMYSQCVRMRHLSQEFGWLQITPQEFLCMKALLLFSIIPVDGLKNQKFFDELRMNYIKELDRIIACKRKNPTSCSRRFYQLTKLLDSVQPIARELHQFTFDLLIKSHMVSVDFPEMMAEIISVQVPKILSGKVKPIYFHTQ
Chain of Cysteinyl leukotriene receptor 1 (Homo sapiens) (Q9Y271 whole entry): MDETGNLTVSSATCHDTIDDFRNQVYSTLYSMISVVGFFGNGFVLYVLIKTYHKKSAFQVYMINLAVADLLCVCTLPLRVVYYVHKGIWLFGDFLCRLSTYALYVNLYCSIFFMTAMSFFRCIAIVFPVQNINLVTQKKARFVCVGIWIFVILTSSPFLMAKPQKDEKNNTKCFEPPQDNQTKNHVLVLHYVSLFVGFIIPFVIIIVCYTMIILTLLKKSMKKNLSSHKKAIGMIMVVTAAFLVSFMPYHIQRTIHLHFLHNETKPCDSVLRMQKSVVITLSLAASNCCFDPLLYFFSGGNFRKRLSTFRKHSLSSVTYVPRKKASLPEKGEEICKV
Chain of Intermediate conductance calcium-activated potassium channel protein 4 (Homo sapiens) (O15554 whole entry): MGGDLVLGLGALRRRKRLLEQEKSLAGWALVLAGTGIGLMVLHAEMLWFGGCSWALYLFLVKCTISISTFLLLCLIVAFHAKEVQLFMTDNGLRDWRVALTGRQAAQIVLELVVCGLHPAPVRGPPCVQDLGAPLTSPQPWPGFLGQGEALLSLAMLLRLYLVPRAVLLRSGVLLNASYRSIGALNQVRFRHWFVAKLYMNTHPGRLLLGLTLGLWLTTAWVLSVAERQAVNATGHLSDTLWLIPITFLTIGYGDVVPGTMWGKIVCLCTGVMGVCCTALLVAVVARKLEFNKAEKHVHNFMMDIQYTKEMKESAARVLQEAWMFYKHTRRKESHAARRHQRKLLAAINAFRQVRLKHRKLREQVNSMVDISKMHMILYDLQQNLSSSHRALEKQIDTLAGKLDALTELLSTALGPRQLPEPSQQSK
Chain of A-type potassium channel modulatory protein KCNIP2 (Homo sapiens) (Q9NS61 whole entry): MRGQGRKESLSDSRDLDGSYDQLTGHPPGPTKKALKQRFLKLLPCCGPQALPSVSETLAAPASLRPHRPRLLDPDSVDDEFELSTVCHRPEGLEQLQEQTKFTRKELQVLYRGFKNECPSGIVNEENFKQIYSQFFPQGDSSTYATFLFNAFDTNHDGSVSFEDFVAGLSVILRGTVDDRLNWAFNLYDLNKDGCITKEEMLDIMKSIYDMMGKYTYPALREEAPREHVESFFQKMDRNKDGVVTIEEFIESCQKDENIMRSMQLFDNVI

Structure (SMILES): c1ccc(-c2nnn[nH]2)c(Nc2cccc3c2CCCC3)c1
- EC50 [1]: 7.7 µM
- EC50 [2]: 5.2 µM
- Activity [3]: 133%
- Activity [4]: 109%
- fraction unbound [5]: < 0.001
- fraction unbound [6]: 0.001
- half-life [7]: 3 min

Structure (SMILES): O=C(Nc1cc(F)c(Br)cc1C(=O)O)c1ccc(SC(F)(F)F)cc1
- inhibition [8]: 77%
- inhibition [9]: 70%
- inhibition [10]: 79%
- inhibition [11]: 79%
- inhibition [12]: 90%
- inhibition [13]: 69%
- inhibition [14]: 79%
- inhibition [15]: 55%
- inhibition [16]: 70%
- Activity [17]: -32%
- inhibition [18]: 7%
- inhibition [19]: 39%
- inhibition at 30 µM [20]: 57%
- inhibition [21]: 76%
- Activity [22]: -21%
- inhibition [23]: 94%
- Activity [24]: -9%
- Activity [25]: -16%
- EC50 [1]: 5.5 µM
- EC50 [2]: 6.1 µM
- Activity [3]: 84%
- Activity [4]: 101%
- AUC [26]: 60.6 µM·h
- half-life [27]: 6.3 h
- Cmax [28]: 8.8 µM
- fraction unbound [29]: 0.052
- fraction unbound [5]: 0.003
- fraction unbound [6]: 0.041
- inhibition [30]: 67%
